Data on 17 compounds can be found in patent US20110020312A1, “METHODS FOR TREATMENT OF METABOLIC DISORDERS USING EPIMETABOLIC SHIFTERS, MULTIDIMENSIONAL INTRACELLULAR MOLECULES, OR ENVIRONMENTAL INFLUENCERS” (priority 2009, published 2011).

The structures appear in SMILES notation.

The subject of one experiment is Bcl-2. Kind of experiment: Western blot of building block components, Bcl-2 expression in Skmel-28 melanoma cells. Type of experiment: cell-based. Further details: key to Bcl-2 expression: X: a decrease in Bc1-2 expression for most of the concentrations and combinations tested as depicted in the table below. To be noted: for Bcl-2 reduction or Caspase-3 increase: 500 nM, 1 μM, 25 μM and 50 μM. Here is the method: (§1) Skmel-28 melanoma cells were cultured in DMEM/F12 supplemented with 5% Fetal Bovine Serum (FBS) and 1× final concentration of Antibiotics. The cells were grown to 85% confluency and treated with building block components for 3, 6, 12 and 24 hours. The cells were then pelleted and a Western blot analysis was performed.
(§2) The test building block components included L-Phenylylalanine, DL-Phenylyalanine, D-Phenylylalanine, L-Tyrosine, DL-Tyrosine, D-Tyrosine, 4-Hydroxy-phenylpyruvate, phenylacetate, 3-methoxy-4-hydroxymandelate (vanillylmandelate or VMA), vanillic acid, 4-hydroxy-benzoate, pyridoxine, panthenol, mevalonic acid, Acetylglycine, Acetyl-CoA, Farnesyl, and 2,3-Dimethoxy-5-methyl-p-benzoquinone.
(§3) In the Western Blot Analysis, the cells were pelleted in cold PBS, lysed, and the protein levels were quantified using a BCA protein assay. The whole cell lysate was loaded in a 4% loading 12% running Tris-HCl gel. The proteins were then transferred to a nitrocellulose paper then blocked with a 5% milk Tris-buffered solution for 1 hour. The proteins were then exposed to primary antibodies (Bcl-2 and Caspase-3) overnight. The nitrocellulose paper was then exposed to Pico Chemilluminescent for 5 min and the protein expression was recorded. After exposure, actin was quantified using the same method. Using ImageJ the levels of protein expression were quantified. A t-Test was used to analyze for statistical significance.

The subject of a further experiment is Caspase-3. Kind of experiment: Western blot of building block components, Caspase-3 expression in Skmel-28 melanoma cells. It is filed as cell-based. On the procedure:
as §1, §2, §3

For experiment [1], the system named is Succinate Dehydrogenase (SDH) Subunit B. Kind of experiment: Western blot, Succinate Dehydrogenase B in mitochondrial preparations. It is filed as cell-based. To be noted: NCIE0808 Mitopreps, 50 uM, 3 h. Here is the method:
The above blots were stripped by incubating for 30 minutes with methanol, followed by two 10 minute washes with TBS-T, then 30 minutes of incubation with Stripping buffer at 50 deg C., and followed by two washes with 100 ml or more of TBS-T for 30′ each. The blots were scanned in laser scanner to check for complete stripping. The blots were activated with methanol for 5 seconds, washed with water for 5 minutes, and TBST for 15 minutes. The blots were blocked for 1 hour with 5% blocking reagent in TBS-T at room temperature and then washed 3 times with TBS-T (1×-15′; 2×5′ each) and probed with the primary antibody for PKM2, SDHB or SDHC in 5% BSA in TBS-T by incubation overnight at 4 deg C. with gentle shaking. The primary antibody for SDHC (ABNOVA H00006391-MO2; antimouse) was at 1:500 dilution. The primary antibody for SDHB was from Abcam ab4714-200; antimouse; at 1:1000 dilution. The primary antibody for Pyruvate Kinase M2 (PKM2) was from Novus Biologicals H00005315-D0IP; antirabbit; at 1:500 dilution. After incubation with primary antibodies, the membranes were washed 3 times with TBS-T (1×-15′; 2×5′ each) and probed with the secondary antibody (SDHB & C antimouse; and PKM2 antirabbit; 1:10,000 dilution) for 1 h on the orbital tilting shaker at room temperature. After 1 h of incubation, the blots were washed 3 times with TBS-T (1×-15′; 2×5′ each) and incubated with ECF reagent for 5 minutes and then each blot scanned with 5100 Fuji Laser scanner at 25 uM resolution, 16 bit, green laser, at 400V and at 500 V.

The test system of the next experiment is cancer cells. To be noted: cited from earlier work.
Another experiment has as its system HDFa cells. Kind of experiment: Extracellular acidification rate (ECAR), SeaHorse XF analyzer. The settings on record: HDFa. Type of experiment: cell-based, human. The source says:
Environmental influencers (e.g., MIMs or Epi-shifters) may also be identified by changes in cellular energetics. One example of the measurement of cellular energetics are the real-time measures of the consumption of molecular oxygen and/or the change in pH of the media of a cell culture. For example, the ability of a potential epi-shifter to modulate the metabolic state of a cell may be analyzed using, for example, the XF24 Analyzer (Seahorse, Inc.). This technology allows for real time detection of oxygen and pH changes in a monolayer of cells in order to evaluate the bioenergetics of a cell microenvironment. The XF24 Analyzer measures and compares the rates of oxygen consumption (OCR), which is a measure of aerobic metabolism, and extracellular acidification (ECAR), which is a measure of glycolysis, both key indicators of cellular energetics.
(SeaHorse Biosciences Inc, North Billerica, Mass.).
In this experiment, the OCR and extracellular acidification rate (ECAR) in normal cells lines were obtained in the presence and absence of CoQ10 to determine baseline values. It was observed that in its native nutrient environment, the basal OCR rates in normal cells lines are different, and are usually a function of the physiological roles of the cells in the body.
Table 51 below describes the ECAR values (mpH/min) in HDFa cells in the presence or absence of CoQ10 under normoxic and hypoxic conditions at 5.5 mM and 22 mM glucose.

`NC(Cc1ccccc1)C(=O)O` (racemic) [DL-Phenylalanine]: the Bcl-2 expression result in the experiment on Bcl-2 (24 hours, concentration not stated (5, 25, 100 μM tested)) is on record as “statistically significant decrease”. The Caspase-3 expression entry in the experiment on Caspase-3 (3 hours, concentration not stated (5, 25, 100 μM tested)) is reported as “statistically significant increase”.
On to `NC(Cc1ccc(O)cc1)C(=O)O` (racemic) [DL-Tyrosine], for which the Bcl-2 expression entry in the experiment with Bcl-2 (1 μM and 15 μM, 12 hours) is listed as “statistical decrease”; in the experiment on Bcl-2 (5 μM, 24 hour (DL-Tyrosine series)), “statistical decrease”. Moreover, in the experiment with Caspase-3 (5 μM and 15 μM, 12 hours), the Caspase-3 expression result is listed as “increase”.
As for `O=C(O)C(=O)Cc1ccc(O)cc1` [4-Hydroxy-phenylpyruvate], the Bcl-2 expression entry in the experiment on Bcl-2 (5 μM and 15 μM, 24 hours) is reported as “significant reduction”. Moreover, in the experiment on Caspase-3 (5 μM and 15 μM, 12 hours), the Caspase-3 expression result is reported as “significant increase”.
For the compound `CC(=O)SCCNC(=O)CCNC(=O)[C@H](O)C(C)(C)COP(=O)(O)OP(=O)(O)OC[C@H]1O[C@@H](n2cnc3c(N)ncnc32)[C@H](O)[C@@H]1OP(=O)(O)O` [Acetyl-CoA], the “Bcl-2 reduction or Caspase-3 increase” value with Bcl-2 is reported as “no significant observed reduction in Bcl-2 or increase in Caspase-3 expression”.
On to `CC(=O)NCC(=O)O` [Acetylglycine], for which the Bcl-2 expression entry in the experiment on Bcl-2 (5 μM and 25 μM, 12 hours) is “significant decrease”; in the experiment with Bcl-2 (100 μM, 24 hour) it was “significant decrease”.
For `COC1=C(OC)C(=O)C(C/C=C(\C)CC/C=C(\C)CC/C=C(\C)CC/C=C(\C)CC/C=C(\C)CC/C=C(\C)CC/C=C(\C)CC/C=C(\C)CC/C=C(\C)CCC=C(C)C)=C(C)C1=O` [Coezyme Q10], in experiment [1], the “Succinate Dehydrogenase B Average Normalized Volume” value turned out to be 634.
For the compound `N[C@H](Cc1ccccc1)C(=O)O` [D-Phenylalanine], the Bcl-2 expression entry is on record as “significant reduction” in the experiment with Bcl-2 (5 μM and 25 μM, 3 hours); “significant reduction” in the experiment with Bcl-2 (5 μM, 25 μM and 100 μM, 6 hours). The Caspase-3 expression result in the experiment with Caspase-3 (5 μM and 100 μM, 6 hours) is on record as “significant increase”.
For the compound `N[C@H](Cc1ccc(O)cc1)C(=O)O` [D-Tyrosine], in the experiment with Bcl-2 (5 μM and 15 μM, 12 and 24 hours), the Bcl-2 expression entry was “reduction”. For the same compound, the Caspase-3 expression result in the experiment with Caspase-3 (1 μM, 12 and 24 hour) is recorded as “increase”; in the experiment with Caspase-3 (5 μM, 3, 12 and 24 time periods), “significantly increased”.
In the case of `N[C@@H](Cc1ccccc1)C(=O)O` [L-Phenylalanine], the Bcl-2 expression entry is on record as “X” in the experiment with Bcl-2 (5 μM, 3 hr); “statistically significant decrease” in the experiment with Bcl-2 (5 μM, 6 hours); “X” in the experiment on Bcl-2 (25 μM, 3 hr); “X” in the experiment on Bcl-2 (25 μM, 6 hr); “statistically significant decrease” in the experiment on Bcl-2 (25 μM, 12 hours); “statistically significant decrease” with Bcl-2 (100 μM, 3 hours and 12 hours incubation). The Bcl-2 expression result with Bcl-2 (100 μM, 3 hr) is given as “X”; in the experiment with Bcl-2 (100 μM, 6 hr), “X”; with Bcl-2 (100 μM, 24 hr), “X”. For the same compound, the Caspase-3 expression entry in the experiment on Caspase-3 (25 μM, 12 hours) was “statistically significant increase”.
On to `N[C@@H](Cc1ccc(O)cc1)C(=O)O` [L-Tyrosine], for which the Bcl-2 expression entry with Bcl-2 (5 μM, 24 hours) was “statistically significant decrease”; in the experiment on Bcl-2 (500 μM and 5 μM (so in the source), 24 hours), “statistically significant decrease”. Further, the Caspase-3 expression result in the experiment on Caspase-3 (500 nM, 12 hours) is listed as “statistically significant increase”.
On to `C[C@@](O)(CCO)CC(=O)O` [Mevalonic Acid], for which the “Bcl-2 reduction or Caspase-3 increase” value in the experiment on Bcl-2 is given as “no significant reduction in Bcl-2 expression or an increase in Caspase-3 expression”.
Take `CC(C)(CO)[C@@H](O)C(=O)NCCCO` [Panthenol]: in the experiment with Bcl-2 (25 μM), the Bcl-2 expression result was “significant reduction”.
Take `Cc1ncc(CO)c(CO)c1O` [Pyridoxine]: the Bcl-2 expression entry in the experiment with Bcl-2 (24 hours (5, 25, 100 μM tested)) is “significant reduction”.
With `COc1cc(C(O)C(=O)O)ccc1O` (centres unmarked) [VMA, 3-methoxy-4-hydroxymandelate], in the experiment on Bcl-2 (100 nM to 100 μM), the “apoptotic effect (Bcl-2/Caspase-3 Western blot)” value is on record as “no statistically significant apoptotic effect” and the “trend of Bcl-2 expression” value is on record as “downward trend”.
`COc1cc(C(=O)O)ccc1O` [Vanillic Acid, Vanillic acid]: the Bcl-2 expression entry is “significantly reduce” in the experiment on Bcl-2 (500 nM and 5 μM, 24 hour); “reduction” in the experiment on Bcl-2 (15 μM, 3 hours). For the same compound, the Caspase-3 expression entry in the experiment on Caspase-3 (15 μM, 24 hours) is “significant increase”.
With `C=C1/C(=C\C=C2/CCC[C@]3(C)[C@@H]([C@H](C)CCCC(C)(C)O)CC[C@@H]23)C[C@@H](O)C[C@@H]1O` [Vitamin D3, 1α, 25-dihydroxyvitamin D3], in the experiment on cancer cells (reported (Deeb et al. 2007)), the “expression of anti-apoptotic proteins BCL2 and BCL-XL” value is “repressing the expression”; the “expression of pro-apoptotic proteins (BAX, BAK and BAD)” value was “inducing the expression”; the “gene transcription of cyclin-dependent kinase inhibitor p21WAFI/CIPI” value is on record as “induce gene transcription”. Moreover, the “expression of vascular endothelial growth factor (VEGF)” value in the experiment with cancer cells (reported (Masuda and Jones, 2006)) was “inhibit the expression”.
For the compound `COC1=C(OC)C(=O)C(C/C=C(\C)CC/C=C(\C)CC/C=C(\C)CC/C=C(\C)CC/C=C(\C)CC/C=C(\C)CC/C=C(\C)CC/C=C(\C)CC/C=C(\C)CCC=C(C)C)=C(C)C1=O` [compound 31510], the ECAR stood at 5 mpH/min with HDFa cells (Hypoxia (5.5 mM), 50 μM); 5 mpH/min in the experiment on HDFa cells (Hypoxia (5.5 mM), 100 μM); 6 mpH/min with HDFa cells (Hypoxia (22 mM), 50 μM); 8 mpH/min in the experiment with HDFa cells (Hypoxia (22 mM), 100 μM); 6 mpH/min with HDFa cells (Normoxia (5.5 mM), 50 μM); 6 mpH/min with HDFa cells (Normoxia (5.5 mM), 100 μM). Further, the ECAR in the experiment on HDFa cells (Normoxia (22 mM), 50 μM) is 5 mpH/min; in the experiment with HDFa cells (Normoxia (22 mM), 100 μM) it was 5 mpH/min.
